Data on 22 compounds can be found in patent publication US20080207708A1, “Oxazole and Thiazole Compounds and Their Use in the Treatment of Pge2 Mediated Disorders” (GLAXO GROUP LIMITED, priority 2005, published 2008).

The structures appear in SMILES notation. A value given as a limit tells only on which side of the number the result lay.

For experiment [1], the target named is T1, EP1 receptors (Homo sapiens, UniProt P34995).
T1 sequence (P34995 1-402): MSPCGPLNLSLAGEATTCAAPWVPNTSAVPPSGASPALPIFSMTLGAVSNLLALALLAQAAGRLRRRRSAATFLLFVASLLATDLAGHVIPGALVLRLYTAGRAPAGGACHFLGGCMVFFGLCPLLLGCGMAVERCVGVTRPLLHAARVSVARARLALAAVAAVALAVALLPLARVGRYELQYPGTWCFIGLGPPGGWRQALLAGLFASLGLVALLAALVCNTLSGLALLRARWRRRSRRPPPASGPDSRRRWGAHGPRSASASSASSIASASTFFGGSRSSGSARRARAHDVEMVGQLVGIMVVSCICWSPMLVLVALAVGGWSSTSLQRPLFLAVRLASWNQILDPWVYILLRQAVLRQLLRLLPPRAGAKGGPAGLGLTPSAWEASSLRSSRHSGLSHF
Briefly: Binding assay for the human prostanoid EP1 receptor (competition with [3H]-PGE2). The arrangement: expressed in transfected cells; host or cells: CHO-K1 cells, membrane fraction. As to conditions: [3H]-PGE2 competition; averages of a number of experiments; read-out: pIC50 value, binding assay for the human prostanoid EP1 receptor (converted). In short, it runs like this:
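Competition against 3 nM (final) tritiated PGE2 at 30° C for 30 min, pH 6 MES assay buffer, using membranes of stably transfected CHO-K1 cells. Filter-retained counts by scintillation; nonlinear curve fitting gives concentration inhibiting 50% of specific binding.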

Experiment [2] deals with T1, EP1 receptors. Description: human EP1 calcium mobilisation assay (CHO-K1 cells, FLIPR, PGE2). In kind it is cell-based. As to conditions: free bases or sodium salts; averages of a number of experiments; read-out: functional pKi value, human EP1 calcium mobilisation assay (converted). The arrangement: expressed in transfected cells; host or cells: CHO-K1 cells, pCIN vector. The protocol: Briefly, the antagonist properties of compounds are assessed by their ability to inhibit the mobilisation of intracellular calcium ([Ca^2+]i) in response to activation of EP1 or EP3 receptors by the natural agonist hormone prostaglandin E2 (PGE2). Increasing concentrations of antagonist reduce the amount of calcium that a given concentration of PGE2 can mobilise. The net effect is to displace the PGE2 concentration-effect curve to higher concentrations of PGE2. The amount of calcium produced is assessed using a calcium-sensitive fluorescent dye such as Fluo-4, AM and a suitable instrument such as a Fluorimetric Imaging Plate Reader (FLIPR). Increasing amounts of [Ca^2+]i produced by receptor activation increase the amount of fluorescence produced by the dye and give rise to an increasing signal. The signal may be detected using the FLIPR instrument and the data generated may be analysed with suitable curve-fitting software.
The human EP1 or EP3 calcium mobilisation assay (hereafter referred to as ‘the calcium assay’) utilises Chinese hamster ovary-K1 (CHO-K1) cells into which a stable (pCIN; BioTechniques 20 (1996): 102-110) vector containing either EP1 or EP3 cDNA has previously been transfected. Cells are cultured in suitable flasks containing culture medium such as DMEM:F-12 supplemented with 10% v/v foetal calf serum, 2 mM L-glutamine, 0.25 mg/ml geneticin, 100 μM flurbiprofen and 10 µg/ml puromycin. For assay, cells are harvested using a proprietary reagent that dislodges cells such as Versene. Cells are re-suspended in a suitable quantity of fresh culture media for introduction into a 384-well plate. Following incubation for 24 hours at 37° C. the culture media is replaced with a medium containing Fluo-4 and the detergent pluronic acid, and a further incubation takes place. Concentrations of compounds are then added to the plate in order to construct concentration-effect curves. This may be performed on the FLIPR in order to assess the agonist properties of the compounds. Concentrations of PGE2 are then added to the plate in order to assess the antagonist properties of the compounds. The data so generated may be analysed by means of a computerised curve-fitting routine. The concentration of compound that elicits a half-maximal inhibition of the calcium mobilisation induced by PGE2 (pIC50) may then be estimated.

On to `CC(C)CNC(=O)c1csc(Cc2cc(Cl)ccc2OCc2ccccc2)n1` [Example 93, 2-({5-Chloro-2-[(phenylmethyl)oxy]phenyl}methyl)-N-(2-methylpropyl)-1,3-thiazole-4-carboxamide], for which, at EP1 receptors [1], the IC50 is at most 1 µM. Besides, the Ki at EP1 receptors [2] is above 1 µM.
Turning to `O=C(NCc1ccccn1)c1csc(Cc2cc(Cl)ccc2OCc2ccccc2)n1` [Example 94, 2-({5-Chloro-2-[(phenylmethyl)oxy]phenyl}methyl)-N-(2-pyridinylmethyl)-1,3-thiazole-4-carboxamide], the IC50 at EP1 receptors [1] is at most 1 µM. For the same compound, the Ki on EP1 receptors [2] is below 1 µM.
On to `O=C(NCc1cccnc1)c1csc(Cc2cc(Cl)ccc2OCc2ccccc2)n1` [Example 95, 2-({5-Chloro-2-[(phenylmethyl)oxy]phenyl}methyl)-N-(3-pyridinylmethyl)-1,3-thiazole-4-carboxamide], for which the IC50 on EP1 receptors [1] is at most 1 µM. In addition, the Ki on EP1 receptors [2] is below 1 µM.
As for `O=C(NCc1ccncc1)c1csc(Cc2cc(Cl)ccc2OCc2ccccc2)n1` [Example 96, 2-({5-Chloro-2-[(phenylmethyl)oxy]phenyl}methyl)-N-(4-pyridinylmethyl)-1,3-thiazole-4-carboxamide], the IC50 on EP1 receptors [1] is at most 1 µM. The Ki at EP1 receptors [2] is below 1 µM.
Regarding `CNC(=O)c1csc(Cc2cc(Cl)ccc2OCc2ccccc2)n1` [Example 97, 2-({5-Chloro-2-[(phenylmethyl)oxy]phenyl}methyl)-N-methyl-1,3-thiazole-4-carboxamide], the IC50 on EP1 receptors [1] was at most 1 µM. The Ki on EP1 receptors [2] is above 1 µM.
As for `O=C(Nc1nnn[nH]1)c1csc(Cc2cc(Cl)ccc2OCc2ccccc2)n1` [Example 98, 2-({5-Chloro-2-[(phenylmethyl)oxy]phenyl}methyl)-N-1H-tetrazol-5-yl-1,3-thiazole-4-carboxamide], the IC50 on EP1 receptors [1] is at most 1 µM. For the same compound, at EP1 receptors [2], the Ki was at most 0.0316 µM.
For `O=C(Nc1ccccn1)c1csc(Cc2cc(Cl)ccc2OCc2ccccc2)n1` [Example 99, 2-({5-Chloro-2-[(phenylmethyl)oxy]phenyl}methyl)-N-2-pyridinyl-1,3-thiazole-4-carboxamide], at EP1 receptors [1], the IC50 was at most 1 µM. Also, the Ki on EP1 receptors [2] was above 1 µM.
Taken in the same sequence, the figures for `O=C(NS(=O)(=O)c1ccccc1)c1csc(Cc2cc(Cl)ccc2OCc2ccc(F)cc2)n1` [Example 101, 2-[(5-Chloro-2-{[(4-fluorophenyl)methyl]-oxy}phenyl)methyl]-N-(phenylsulfonyl)-1,3-thiazole-4-carboxamide] were at most 0.0316 µM and below 1 µM.
The matching figures for `O=C(NS(=O)(=O)c1ccccc1)c1csc(Cc2cc(Cl)ccc2OCc2ccc(F)cc2F)n1` [Example 102, 2-[(5-Chloro-2-{[(2,4-difluorophenyl)methyl]oxy}phenyl)methyl]-N-(phenylsulfonyl)-1,3-thiazole-4-carboxamide]: at most 0.0316 µM and below 1 µM.
On to `O=C(NS(=O)(=O)c1ccccc1)c1csc(Cc2cc(Cl)ccc2OCc2ccccc2F)n1` [Example 103, 2-[(5-Chloro-2-{[(2-fluorophenyl)methyl]-oxy}phenyl)methyl]-N-(phenylsulfonyl)-1,3-thiazole-4-carboxamide], for which, on EP1 receptors [1], the IC50 was at most 0.0316 µM. Also, the Ki at EP1 receptors [2] is below 1 µM.
As to `O=C(NS(=O)(=O)c1ccccc1)c1csc(Cc2cc(Cl)ccc2OCc2ccccc2Cl)n1` [Example 104, 2-[(5-Chloro-2-{[(2-chlorophenyl)methyl]-oxy}phenyl)methyl]-N-(phenylsulfonyl)-1,3-thiazole-4-carboxamide], the IC50 at EP1 receptors [1] is at most 0.0316 µM. In addition, the Ki on EP1 receptors [2] is below 1 µM.
For the compound `O=C(NS(=O)(=O)c1ccccc1)c1csc(Cc2cc(Cl)ccc2OCc2ccc(Cl)cc2F)n1` [Example 105, 2-[(5-Chloro-2-{[(4-chloro-2-fluorophenyl)methyl]-oxy}phenyl)methyl]-N-(phenylsulfonyl)-1,3-thiazole-4-carboxamide], the IC50 on EP1 receptors [1] is at most 0.0316 µM. The Ki at EP1 receptors [2] is below 1 µM.
On to `O=C(NS(=O)(=O)c1ccccc1)c1csc(Cc2cc(Cl)ccc2OCc2cc(F)c(F)cc2F)n1` [Example 106, 2-[(5-Chloro-2-{[(2,4,5-trifluorophenyl)methyl]oxy}phenyl)methyl]-N-(phenylsulfonyl)-1,3-thiazole-4-carboxamide], for which the IC50 at EP1 receptors [1] is at most 0.0316 µM. For the same compound, the Ki on EP1 receptors [2] was at most 0.0316 µM.
Regarding `CS(=O)(=O)NC(=O)c1csc(Cc2cc(Cl)ccc2OCc2ccc(F)cc2)n1` [Example 107, 2-[(5-Chloro-2-{[(4-fluorophenyl)methyl]-oxy)phenyl)methyl]-N-(methylsulfonyl)-1,3-thiazole-4-carboxamide], the IC50 on EP1 receptors [1] is at most 0.0316 µM. Moreover, on EP1 receptors [2], the Ki was below 1 µM.
Regarding `Cc1noc(C)c1S(=O)(=O)NC(=O)c1csc(Cc2cc(Cl)ccc2OCc2ccccc2)n1` [Example 108, 2-({5-Chloro-2-[(phenylmethyl)oxy]-phenyl}methyl)-N-[(3,5-dimethyl-4-isoxazolyl)sulfonyl]-1,3-thiazole-4-carboxamide], the IC50 at EP1 receptors [1] was at most 0.0316 µM. Moreover, the Ki at EP1 receptors [2] was at most 0.0316 µM.
In the case of `CC(C)(C)OC(=O)Nc1csc(Cc2cc(Cl)ccc2OCc2ccccc2)n1` [Example 110, 1,1-Dimethylethyl [2-({5-chloro-2-[(phenylmethyl)oxy]phenyl}methyl)-1,3-thiazol-4-yl]carbamate], the IC50 at EP1 receptors [1] is at most 1 µM. For the same compound, on EP1 receptors [2], the Ki was above 1 µM.
In the case of `CC(C)COc1ccc(Cl)cc1Cc1nc(NC(=O)OC(C)(C)C)cs1` [Example 111, 1,1-Dimethylethyl [2-({5-chloro-2-[(2-methylpropyl)oxy]phenyl}methyl)-1,3-thiazol-4-yl]carbamate], at EP1 receptors [1], the IC50 is at most 1 µM. Besides, the Ki on EP1 receptors [2] was below 1 µM.
In the case of `O=C(Nc1csc(Cc2cc(Cl)ccc2OCc2ccccc2)n1)c1ccc(CO)cc1` [Example 112, N-[2-({5-chloro-2-[(phenylmethyl)oxy]phenyl}methyl)-1,3-thiazol-4-yl]-4-(hydroxymethyl)benzamide], the IC50 at EP1 receptors [1] is at most 1 µM. Further, the Ki on EP1 receptors [2] was above 1 µM.
On to `O=C(Nc1csc(Cc2cc(Cl)ccc2OCc2ccccc2)n1)c1ccc(CN2CCCCC2)cc1` [Example 113, N-[2-({5-Chloro-2-[(phenylmethyl)oxy]phenyl}methyl)-1,3-thiazol-4-yl]-4-(1-piperidinylmethyl)benzamide], for which the IC50 at EP1 receptors [1] is at most 1 µM. In addition, at EP1 receptors [2], the Ki is below 1 µM.
The matching figures for `CN1CCN(Cc2ccc(C(=O)Nc3csc(Cc4cc(Cl)ccc4OCc4ccccc4)n3)cc2)CC1` [Example 114, N-[2-({5-chloro-2-[(phenylmethyl)oxy]-phenyl}methyl)-1,3-thiazol-4-yl]-4-[(4-methyl-1-piperazinyl)methyl]-benzamide]: at most 1 µM and below 1 µM.
Take `CN1CCN(CCc2ccc3nc(-c4csc(Cc5cc(Cl)ccc5OCc5ccccc5)n4)[nH]c3c2)CC1` [Example 115, 2-[2-({5-chloro-2-[(phenylmethyl)oxy]-phenyl}methyl)-1,3-thiazol-4-yl]-5-[2-(4-methyl-1-piperazinyl)ethyl]-1H-benzimidazole]: the IC50 at EP1 receptors [1] was at most 0.0316 µM. At EP1 receptors [2], the Ki is below 1 µM.
With `CC(C)COc1ccc(Cl)cc1Cc1nc(-c2nc3ccc(CCN(C)C)cc3[nH]2)cs1` [Example 116, (2-{2-[2-({5-Chloro-2-[(2-methylpropyl)oxy]-phenyl}methyl)-1,3-thiazol-4-yl]-1H-benzimidazol-5-yl}ethyl)dimethylamine], the IC50 at EP1 receptors [1] was at most 0.0316 µM. The Ki at EP1 receptors [2] is below 1 µM.
